Laboratory results as given in patent US9133158B2, “Bicyclic dihydroisoquinoline-1-one derivatives” (Hoffmann-La Roche Inc., priority 2011, dated 2015).

What was measured:
human CYP11B1 = target: T1, human CYP11B1 (Homo sapiens, UniProt P15538); assay: G-402 cellular enzyme assay, human CYP11B1 (cortisol release, HTRF); assay type: cell-based; details: G-402 cells, 1 μM Deoxycortisol
T1 construct: expressed in transfected cells
T1 sequence (P15538 25-503): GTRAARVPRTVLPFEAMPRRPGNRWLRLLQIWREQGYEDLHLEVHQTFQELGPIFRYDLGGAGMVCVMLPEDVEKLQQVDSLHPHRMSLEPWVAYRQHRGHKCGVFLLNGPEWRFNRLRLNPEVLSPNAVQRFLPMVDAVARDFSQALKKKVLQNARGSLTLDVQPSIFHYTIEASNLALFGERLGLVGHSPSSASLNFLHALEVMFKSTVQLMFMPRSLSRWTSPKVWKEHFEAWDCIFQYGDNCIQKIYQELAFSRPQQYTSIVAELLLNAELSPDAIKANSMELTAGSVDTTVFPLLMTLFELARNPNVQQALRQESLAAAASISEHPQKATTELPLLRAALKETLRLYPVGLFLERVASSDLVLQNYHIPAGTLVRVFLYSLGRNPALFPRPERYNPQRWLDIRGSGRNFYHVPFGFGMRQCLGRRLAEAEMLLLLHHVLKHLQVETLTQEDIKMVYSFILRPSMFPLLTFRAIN
In short: (§1)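 G-402 cells stably expressing human CYP11B1 or CYP11B2 incubated 16 h in DMEM/F12 with 2.5% charcoal-treated FCS, compound, and 1 μM 11-deoxycortisol (B1) or 1 μM deoxycorticosterone (B2). Cortisol (B1) or aldosterone (B2) in supernatant measured by HTRF; EC50 from 4-parameter MMF fit.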

human CYP11B2 = target: T2, human CYP11B2 (Homo sapiens, UniProt P19099); assay: G-402 cellular enzyme assay, human CYP11B2 (aldosterone release, HTRF); assay type: cell-based; details: G-402 cells, 1 μM Deoxycorticosterone
T2 construct: expressed in transfected cells
T2 sequence (P19099 25-503): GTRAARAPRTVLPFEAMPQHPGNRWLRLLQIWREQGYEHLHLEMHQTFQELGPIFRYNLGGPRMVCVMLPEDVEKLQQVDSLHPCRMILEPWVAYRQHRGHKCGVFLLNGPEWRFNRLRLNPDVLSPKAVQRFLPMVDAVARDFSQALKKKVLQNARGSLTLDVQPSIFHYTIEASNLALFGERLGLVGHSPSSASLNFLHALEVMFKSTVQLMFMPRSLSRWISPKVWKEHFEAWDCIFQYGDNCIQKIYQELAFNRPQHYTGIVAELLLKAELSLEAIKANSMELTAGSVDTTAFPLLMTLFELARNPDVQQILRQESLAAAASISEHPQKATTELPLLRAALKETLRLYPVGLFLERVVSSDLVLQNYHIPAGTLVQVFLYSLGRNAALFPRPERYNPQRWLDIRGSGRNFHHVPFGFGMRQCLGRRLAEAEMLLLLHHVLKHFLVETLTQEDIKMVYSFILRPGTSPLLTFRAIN
In short: as §1

| Compound | EC50 (human CYP11B1) | EC50 (human CYP11B2) |
| --- | --- | --- |
| O=C1c2ccc(Cl)cc2CCN1c1cncc(Cn2cccn2)c1 [Example 160, 6-Chloro-2-(5-pyrazol-1-ylmethyl-pyridin-3-yl)-3,4-dihydro-2H-isoquinolin-1-one] | 418 nM | 36.1 nM |
| O=C1c2ccc(Cl)cc2CCN1c1cncc2c([N+](=O)[O-])cccc12 [Example 287, 6-Chloro-8′-nitro-3,4-dihydro-[2,4′]biisoquinolinyl-1-one] | 6410 nM | 555 nM |
| C[S+]([O-])c1cncc(N2CCc3cc(Cl)ccc3C2=O)c1 (stereo not drawn) [Example 279, 6-Chloro-2-(5-methanesulfinyl-pyridin-3-yl)-3,4-dihydro-2H-isoquinolin-1-one] | 11100 nM | 600 nM |
| Cc1ccncc1N1C(=O)c2ccc(Cl)cc2C1C (stereo not drawn) [Example 121, 5-Chloro-3-methyl-2-(4-methyl-pyridin-3-yl)-2,3-dihydro-isoindol-1-one] | 39 nM | 7.1 nM |
| Cn1nccc1-c1cncc(N2CCc3cc(Cl)ccc3C2=O)c1Cl [Example 424, 6-Chloro-2-[4-chloro-5-(2-methyl-2H-pyrazol-3-yl)-pyridin-3-yl]-3,4-dihydro-2H-isoquinolin-1-one] | 140 nM | 6.2 nM |
| CC1c2cc(Cl)ccc2C(=O)N1c1cncc(F)c1 (stereo not drawn) [Example 123, 5-Chloro-2-(5-fluoro-pyridin-3-yl)-3-methyl-2,3-dihydro-isoindol-1-one] | 7730 nM | 122 nM |
| CC1(C)c2ccc(Cl)cc2C(=O)N1c1cncc(CNS(C)(=O)=O)c1 [Example 408, N-[5-(5-Chloro-1,1-dimethyl-3-oxo-1,3-dihydro-isoindol-2-yl)-pyridin-3-ylmethyl]-methane-sulfonamide] | 14300 nM | 923 nM |
| C[C@H]1Cc2cc(Cl)ccc2C(=O)N1c1cccnc1 [Example 92, (S)-6-Chloro-3-methyl-2-pyridin-3-yl-3,4-dihydro-2H-isoquinolin-1-one] | 11400 nM | 268 nM |
| CC(=O)NC1CCCc2c1cncc2N1Cc2cc(Cl)ccc2C1=O (single isomer, unassigned) [Example 323, N-[(R or S)-4-(5-Chloro-1-oxo-1,3-dihydro-isoindol-2-yl)-5,6,7,8-tetrahydro-isoquinolin-8-yl]-acetamide] | 2350 nM | 44.2 nM |
| COC[C@@H]1CCCN1Cc1cncc(N2Cc3cc(Cl)ccc3C2=O)c1 [Example 113, 5-Chloro-2-[5-((S)-2-methoxymethyl-pyrrolidin-1-ylmethyl)-pyridin-3-yl]-2,3-dihydro-isoindol-1-one] | 1360 nM | 342 nM |
| COc1ccc2c(n1)C(C)(C)N(c1cccnc1)C2=O [Example 300, 2-Methoxy-7,7-dimethyl-6-pyridin-3-yl-6,7-dihydro-pyrrolo[3,4-b]pyridin-5-one] | 14300 nM | 216 nM |
| CCC(=O)NC1CCCc2c1cncc2N1CCc2cc(Cl)ccc2C1=O (single isomer, unassigned) [Example 329, N-((S or R)-6-Chloro-1-oxo-3,4,5′,6′,7′,8′-hexahydro-1H-[2,4′]biisoquinolinyl-8′-yl)-propionamide] | 12000 nM | 6020 nM |
| CC(C)(O)c1c(F)cncc1N1CCc2cc(Cl)ccc2C1=O [Example 70, 6-Chloro-2-[5-fluoro-4-(1-hydroxy-1-methyl-ethyl)-pyridin-3-yl]-3,4-dihydro-2H-isoquinolin-1-one] | 392 nM | 460 nM |
| COC(C)c1cncc(N2CCc3cc(Cl)ccc3C2=O)c1 (stereo not drawn) [Example 16, 6-Chloro-2-[5-(1-methoxy-ethyl)-pyridin-3-yl]-3,4-dihydro-2H-isoquinolin-1-one] | 126 nM | 19.3 nM |
| O=C1c2ccc(Cl)cc2CCN1c1cncc(CNc2ccc(Cl)cc2)c1 [Example 260, 6-Chloro-2-{5-[(4-chloro-phenylamino)-methyl]-pyridin-3-yl}-3,4-dihydro-2H-isoquinolin-1-one] | 345 nM | 471 nM |
